Laboratory results reported in publication PMC10253817, “Design, Pharmacological Characterization, and Molecular Docking of Minimalist Peptidomimetic Antagonists of α4β1 Integrin” (International Journal of Molecular Sciences, 2023).

Tests used:
Type in all cases: cell-based
[1] = tested on: AKT; experiment: Western blot, FN-induced AKT phosphorylation in Jurkat E6.1 cells; conditions: Jurkat E6.1 cells pre-treated with 10^−7, 10^−8, 10^−9 M, then FN (10 µg/mL) 30 min
Method: To this purpose, Jurkat E6.1 cells were pre-treated with different concentrations (10^−7, 10^−8, 10^−9 M) of the compounds and then exposed to FN (10 µg/mL) for 30 min. […] In addition, the effects observed on intracellular signaling were concentration-dependent, except for compound 13 on AKT activation.
Western blot analysis was performed as previously described, with the following modifications. […] For integrin antagonists, JurkatE6.1 cells were subsequently incubated with FN (10 μg/mL) at 37 °C for 30 min. At the end of the incubation period, Jurkat E6.1 cells were lysed on ice using T-PER® (Tissue Protein Extraction Reagent, Life Technologies Italia, Milan, Italy), supplemented with a phosphatase inhibitor cocktail. Protein extracts were quantified using a BCA Protein Assay (Pierce, Rockford, IL, USA). The proteins from the cytoplasmatic extract were denatured at 95 °C for 3 min, then equal amounts of protein samples (30–50 μg) were loaded and separated via 12% SDS-PAGE. Proteins were transferred onto a nitrocellulose membrane (Biorad, Hercules, CA, USA), which was blocked with 5% nonfat milk in a Tris-buffered saline (10 mM Tris-HCl, pH 8, containing 150 mM NaCl) containing 0.1% Tween 20 for 1 h at room temperature. Membranes were stained overnight at 4 °C with anti-actin antibody (1:5000, Merck Life Science, Milan, Italy) or with anti-phospho-ERK1/2, anti-total ERK1/2, anti-phospho-AKT, anti-total-AKT, or anti-phospho-JNK antibodies (1:1000; Cell Signaling Technology, Danvers, MA, USA). The membranes were incubated with anti-rabbit peroxidase-conjugated secondary antibodies at a dilution of 1:8000. Blots were developed with a SuperSignal West Pico chemiluminescent substrate. Protocols for digital image acquisition and analysis have previously been described.

[2] = molecular target: T1, α4β1 integrin (Homo sapiens, UniProt P05556+P13612); experiment: α4β1 integrin-mediated Jurkat cell adhesion to VCAM-1; conditions: Jurkat cell adhesion to VCAM-1 (2 μg/mL); antag. = reduced cell adhesion; mean ± SD
T1 construct: Jurkat E6.1 cell line, which endogenously expresses α4β1 integrin; host or cells: Jurkat E6.1
Method: To this purpose, the ability of the best peptidomimetics to modulate cell adhesion mediated by integrins other than α4β1 was evaluated in HL60 cells, mainly expressing the leukocyte integrin αMβ2, and on K562 cells, mainly expressing α5β1, which shares a β1 subunit with the heterodimer α4β1. […] In contrast, 13 was a moderate promoter of cell adhesion mediated by αMβ2 integrin, behaving as an agonist. Regarding α5β1 integrin, none of the peptidomimetics employed were able to modulate K562 cell adhesion, thus being shown to be completely ineffective toward α5β1 integrin. The reference compound DS-70 was ineffective toward both αMβ2 and α5β1 integrins under the same experimental conditions (Table 3).
(§1) The assays were performed as previously described. Briefly, regarding adhesion assays on Jurkat E6.1 or HL-60 cells, black 96-well plates (Corning Costar) were coated overnight at 4 °C with FN or Fg (10 μg/mL) or VCAM-1 (2 μg/mL) in order to investigate α4β1 integrin-mediated cell adhesion. To avoid any kind of unspecific binding, plates were incubated with 100 μL/well of blocking solution (1% BSA in HBSS) for 30 min at 37 °C. Cells were counted, stained with the CellTracker green CMFDA (12.5 μM, 30 min at 37 °C, Life Technologies Italia, Milan, Italy) and after three washes, were preincubated with increasing concentrations of new compounds (10^−10–10^−4 M) or with the vehicle (methanol) for 30 min at 37 °C.
(§2) Then, cells were plated (500,000/well) on coated wells and incubated for 30 min at 37 °C. Afterwards nonadherent cells were removed via washing with a blocking solution, and the remaining adhered cells were lysed with 0.5% Triton X-100 in PBS (30 min at 4 °C). Green fluorescence was measured (Ex485 nm/Em535 nm) using an EnSpire Multimode Plate Reader (PerkinElmer, Waltham, MA, USA).
(§3) In both types of adhesion assay, the number of adherent cells was determined via comparison with a standard curve made in the same plate. Experiments were carried out in quadruplicate and repeated at least three times. Data analysis and EC50 or IC50 values were calculated using GraphPad Prism 9.5.1 (GraphPad Software, San Diego, CA, USA).

[3] = molecular target: T1, α4β1 integrin; experiment: α4β1 integrin-mediated Jurkat E6.1 cell adhesion to FN; conditions: Jurkat E6.1 cell adhesion to FN (10 μg/mL); antag. = reduced cell adhesion; mean ± SD
Method: To investigate the ability of the new peptides to modulate integrin-mediated cell adhesion, we employed cell adhesion assays using a Jurkat E6.1 cell line, which endogenously expresses α4β1 integrin and the natural ligand FN. […] On the contrary, ligands able to increase cell adhesion are defined as agonists.
as §1, §2, §3

T1 sequence (P13612 34-1032): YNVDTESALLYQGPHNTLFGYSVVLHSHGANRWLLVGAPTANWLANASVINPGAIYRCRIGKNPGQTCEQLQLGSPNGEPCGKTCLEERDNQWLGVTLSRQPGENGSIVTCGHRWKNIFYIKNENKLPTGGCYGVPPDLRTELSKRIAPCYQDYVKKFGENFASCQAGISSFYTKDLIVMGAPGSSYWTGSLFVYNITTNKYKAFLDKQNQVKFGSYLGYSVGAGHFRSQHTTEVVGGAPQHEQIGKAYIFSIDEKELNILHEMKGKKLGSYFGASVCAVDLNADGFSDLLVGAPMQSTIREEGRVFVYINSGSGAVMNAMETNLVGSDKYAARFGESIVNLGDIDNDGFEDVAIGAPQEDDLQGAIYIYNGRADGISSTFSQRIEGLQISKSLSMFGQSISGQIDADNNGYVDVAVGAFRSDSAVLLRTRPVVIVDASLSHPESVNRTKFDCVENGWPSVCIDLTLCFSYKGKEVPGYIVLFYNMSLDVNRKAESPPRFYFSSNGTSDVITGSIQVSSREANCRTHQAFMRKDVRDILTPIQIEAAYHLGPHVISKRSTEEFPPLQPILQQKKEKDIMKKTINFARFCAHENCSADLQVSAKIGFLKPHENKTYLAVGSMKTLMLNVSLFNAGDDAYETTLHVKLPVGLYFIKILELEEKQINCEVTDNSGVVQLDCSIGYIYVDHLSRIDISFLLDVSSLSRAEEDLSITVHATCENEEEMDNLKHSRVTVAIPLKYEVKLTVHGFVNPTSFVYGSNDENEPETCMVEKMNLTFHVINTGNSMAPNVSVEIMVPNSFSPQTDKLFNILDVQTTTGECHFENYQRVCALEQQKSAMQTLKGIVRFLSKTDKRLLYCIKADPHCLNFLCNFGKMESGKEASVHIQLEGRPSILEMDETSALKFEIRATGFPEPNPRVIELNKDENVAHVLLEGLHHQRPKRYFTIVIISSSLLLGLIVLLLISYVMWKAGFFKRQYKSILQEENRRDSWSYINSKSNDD
T1 sequence (P05556 21-798): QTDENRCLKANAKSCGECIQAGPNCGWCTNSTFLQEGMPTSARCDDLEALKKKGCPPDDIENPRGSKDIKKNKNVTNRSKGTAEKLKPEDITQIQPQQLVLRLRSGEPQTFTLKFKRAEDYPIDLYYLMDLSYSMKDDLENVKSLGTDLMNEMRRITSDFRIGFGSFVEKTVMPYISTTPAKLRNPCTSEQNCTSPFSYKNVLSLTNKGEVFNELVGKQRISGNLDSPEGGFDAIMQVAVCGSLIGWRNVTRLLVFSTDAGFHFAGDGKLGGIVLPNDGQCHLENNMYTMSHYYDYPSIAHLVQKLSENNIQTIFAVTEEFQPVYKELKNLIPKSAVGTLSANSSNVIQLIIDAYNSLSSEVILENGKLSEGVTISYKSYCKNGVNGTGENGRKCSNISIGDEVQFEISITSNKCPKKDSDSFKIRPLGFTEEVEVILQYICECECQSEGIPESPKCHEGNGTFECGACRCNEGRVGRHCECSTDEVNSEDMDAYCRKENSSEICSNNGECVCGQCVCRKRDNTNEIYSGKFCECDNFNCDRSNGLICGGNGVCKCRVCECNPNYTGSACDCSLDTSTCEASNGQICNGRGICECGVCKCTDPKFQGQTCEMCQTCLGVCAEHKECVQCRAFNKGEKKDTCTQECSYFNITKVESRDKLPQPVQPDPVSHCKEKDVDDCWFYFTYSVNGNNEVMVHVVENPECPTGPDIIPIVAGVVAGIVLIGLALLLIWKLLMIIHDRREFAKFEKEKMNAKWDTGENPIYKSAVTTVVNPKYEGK

| Structure (SMILES) | FN-induced AKT phosphorylation [1] | IC50 [2] [nM] | IC50 [3] [nM] |
| --- | --- | --- | --- |
| CC(=O)N[C@@H](CNC(=O)Cc1ccc(NC(=O)Nc2ccccc2C)cc1)C(=O)NCC(=O)O [compound 3] | significantly prevented | 975 |  |
| CCCNC(=O)[C@@H](CC(=O)NCC(=O)O)NC(=O)Cc1ccc(NC(=O)Nc2ccccc2C)cc1 [compound 8] | significantly prevented | 54 |  |
| Cc1ccccc1NC(=O)Nc1ccc(CNC(=O)C[C@@H](C)NC(=O)CC(=O)O)cc1 [compound 13] | significantly prevented | 879 | 416 |
